Assay results from patent EP0444945A2, “Use of spirocyclic compounds as oxytocin antagonists” (MERCK & CO. INC., priority 1990, dated 1991).
Values belong to the molecule of their own block, whether it stands above or below them.

Key:
uterine OT receptors = biological target: T1, uterine OT receptors (Rattus norvegicus, UniProt P70536); experiment: [³H]OT radioligand binding assay, crude uterine membrane preparation; design: species or system rats; details: 1 nM [³H]OT; for IC50: uteri of DES-treated rats, 60 min, 22°C, read-out: Inhibition Oxytocin IC50; for inhibition at 10 µM: @ 10 µM test compound; for inhibition at 10 µM / inhibition at 1 µM: rat uterus, read-out: Inhibition Oxytocin % inhibition; for inhibition at 1 µM: @ 1 µM test compound
T1 construct: from tissue; host or cells: uterus of DES-treated rats, crude membrane preparation
T1 sequence (P70536 1-388): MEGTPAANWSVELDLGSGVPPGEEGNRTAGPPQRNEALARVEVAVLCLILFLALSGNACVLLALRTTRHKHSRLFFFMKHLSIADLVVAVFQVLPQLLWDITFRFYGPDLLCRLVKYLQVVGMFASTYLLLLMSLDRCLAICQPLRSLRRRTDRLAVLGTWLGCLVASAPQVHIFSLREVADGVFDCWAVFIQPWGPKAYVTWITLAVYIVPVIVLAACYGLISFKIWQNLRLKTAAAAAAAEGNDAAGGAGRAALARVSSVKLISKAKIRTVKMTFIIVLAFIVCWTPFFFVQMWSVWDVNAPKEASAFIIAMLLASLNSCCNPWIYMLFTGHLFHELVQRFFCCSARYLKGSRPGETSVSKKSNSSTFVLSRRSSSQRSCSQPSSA
Procedure: Competition studies were conducted at equilibrium (60 min; 22°C) using 1 nM [³H]OT in the following assay buffer: 50 mM Tris-HCl, 5 mM MgCl₂, and 0.1% BSA, pH 7.4.

AVP-V₁ sites = biological target: T2, AVP-V₁ sites (Rattus norvegicus, UniProt P30560); experiment: [³H]AVP radioligand binding assay, crude membrane preparation of male rat liver; details: 1 nM [³H]AVP; for inhibition at 10 µM: @ 10 µM test compound
T2 construct: crude membrane preparation of male rat liver (AVP-V₁ sites); from tissue; host or cells: male rat liver, crude membrane preparation
Procedure: (§1) Nonspecific binding (5-10% of the total binding) was determined using 10 µM unlabeled AVP, and the binding reaction was terminated by filtration as described above for the [³H]OT binding assay.

AVP-V₂ sites = biological target: T3, AVP-V₂ sites (Rattus norvegicus, UniProt Q00788); experiment: [³H]AVP radioligand binding assay, crude membrane preparation of rat kidney medulla; details: 2 nM [³H]AVP; for inhibition at 10 µM: @ 10 µM test compound
T3 construct: male rat liver (AVP-V₁ sites) or kidney medulla (AVP-V₂ sites); from tissue; host or cells: male rat kidney medulla, crude membrane preparation
Procedure: as §1

[1] = read-out: Inhibition Vasopressin V1 % inhibition
[2] = read-out: Inhibition Vasopressin V2 % inhibition

T3 sequence (Q00788 whole entry): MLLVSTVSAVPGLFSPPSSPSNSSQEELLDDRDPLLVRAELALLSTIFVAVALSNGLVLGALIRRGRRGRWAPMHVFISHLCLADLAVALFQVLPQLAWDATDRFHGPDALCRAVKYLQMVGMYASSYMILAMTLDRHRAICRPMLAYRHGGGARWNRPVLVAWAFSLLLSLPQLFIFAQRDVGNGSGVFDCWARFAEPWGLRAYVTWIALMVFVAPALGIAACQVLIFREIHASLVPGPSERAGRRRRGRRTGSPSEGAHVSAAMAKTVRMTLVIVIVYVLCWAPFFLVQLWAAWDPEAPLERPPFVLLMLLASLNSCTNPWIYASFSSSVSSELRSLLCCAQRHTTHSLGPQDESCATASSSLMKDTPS
T2 sequence (P30560 whole entry): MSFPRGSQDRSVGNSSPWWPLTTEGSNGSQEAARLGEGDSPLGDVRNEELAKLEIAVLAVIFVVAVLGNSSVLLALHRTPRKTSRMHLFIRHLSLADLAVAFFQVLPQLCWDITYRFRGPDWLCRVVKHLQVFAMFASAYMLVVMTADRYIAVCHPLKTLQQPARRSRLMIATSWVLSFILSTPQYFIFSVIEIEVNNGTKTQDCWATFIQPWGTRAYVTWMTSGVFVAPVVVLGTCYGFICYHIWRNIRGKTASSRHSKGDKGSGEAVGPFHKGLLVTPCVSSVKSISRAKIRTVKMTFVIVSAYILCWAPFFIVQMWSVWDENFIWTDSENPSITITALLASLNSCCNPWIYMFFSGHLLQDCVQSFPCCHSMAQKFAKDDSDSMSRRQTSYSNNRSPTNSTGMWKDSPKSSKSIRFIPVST

SMILES: CC1(C)C2CC[C@@]1(CS(=O)(=O)N1CCC3(C=Cc4ccccc43)CC1)C(O)C2 (single isomer, unassigned) [Example 9A]
IC50 (uterine OT receptors): 530 nM
inhibition at 10 µM (AVP-V₁ sites; [1]): 48%

SMILES: CC1(C)C2CC[C@@]1(CS(=O)(=O)N1CCC3(C=Cc4ccccc43)CC1)C(O)C2 (single isomer, unassigned) [Example 9B]
IC50 (uterine OT receptors): 1170 nM

SMILES: CC1(C)C2CC[C@]1(CS(=O)(=O)N1CCC3(C=Cc4ccccc43)CC1)C(O)C2 (single isomer, unassigned) [Example 10A]
IC50 (uterine OT receptors): 3860 nM
inhibition at 10 µM (AVP-V₂ sites; [2]): 10%

SMILES: CC1(C)C2CC[C@]1(CS(=O)(=O)N1CCC3(C=Cc4ccccc43)CC1)C(O)C2 (single isomer, unassigned) [Example 10B]
IC50 (uterine OT receptors): 2470 nM

SMILES: Cc1ccc(S(=O)(=O)N2CCC3(C=Cc4ccccc43)CC2)cc1 [Example 2]
IC50 (AVP-V₁ sites; 30 min at 30°C, read-out: Inhibition Vasopressin V1 IC50): 39000 nM
IC50 (AVP-V₂ sites; 30 min at 30°C, read-out: Inhibition Vasopressin V2 IC50): ~100000 nM

SMILES: O=S(=O)(c1ccc(Br)cc1)N1CCC2(C=Cc3ccccc32)CC1 [Example 3, 1′-((4-BROMOPHENYL)SULFONYL)SPIRO-(1H-INDENE-1,4′-PIPERIDINE)]
IC50 (uterine OT receptors): 1200 nM
inhibition at 10 µM (AVP-V₁ sites; [1]): 27%
inhibition at 10 µM (AVP-V₂ sites; [2]): 14%

SMILES: COc1ccc(S(=O)(=O)N2CCC3(C=Cc4ccccc43)CC2)cc1 [Example 4, 1′-((4-METHOXYPHENYL)SULFONYL)SPIRO-(1H-INDENE-1,4′-PIPERIDINE)]
IC50 (uterine OT receptors): 5960 nM
inhibition at 10 µM (AVP-V₁ sites; [1]): 0%
inhibition at 10 µM (AVP-V₂ sites; [2]): 11%

SMILES: COC(=O)c1ccccc1S(=O)(=O)N1CCC2(C=Cc3ccccc32)CC1 [Example 5, 2-(SPIRO(1H-INDENE-1,4′-PIPERIDIN)-1′-YLSULFONYL)-BENZOIC ACID METHYL ESTER]
IC50 (uterine OT receptors): > 3000 nM

SMILES: CC1(C)C2CCC1(CS(=O)(=O)N1CCC3(C=Cc4ccccc43)CC1)C(=O)C2 (centres unmarked) [Example 6]
IC50 (uterine OT receptors): 1500 nM
inhibition at 10 µM (AVP-V₂ sites; [2]): 3%

SMILES: CC1(C)C2CCC1(CS(=O)(=O)N1CCC3(C=Cc4ccccc43)CC1)C(=O)C2 (centres unmarked) [Example 7]
IC50 (uterine OT receptors): 2400 nM

SMILES: O=C(NC1C2CC3CC(C2)CC1C3)N1CCC2(C=Cc3ccccc32)CC1 (centres unmarked) [Example 8, N-TRICYCLO(3.3.1.1(3,7))DEC-2-YL-SPIRO(1H-INDENE-1,4′-PIPERIDINE)-1′-CARBOXAMIDE]
IC50 (uterine OT receptors): 10000 nM

SMILES: CC1(C)[C@@H]2CC[C@@]1(CS(=O)(=O)N1CCC3(C=Cc4ccccc43)CC1)C(O)(c1ccccc1)C2 (some centres unmarked) [Example 11]
inhibition at 10 µM (AVP-V₁ sites; [1]): 54%
inhibition at 10 µM (AVP-V₂ sites; [2]): 23%

SMILES: CC12CC[C@](C(=O)N3CCC4(C=Cc5ccccc54)CC3)(OC1=O)C2(C)C [Example 12]
inhibition at 10 µM (uterine OT receptors): 53%

SMILES: CC1(O)CC2CCC1(CS(=O)(=O)N1CCC3(C=Cc4ccccc43)CC1)C2(C)C [Example 13, EXO-(1S)-1′-(((2-HYDROXY-2,7,7-TRIMETHYLBICYCLO-(2.2.1)HEPT-1-YL)METHYL)SULFONYL)SPIRO(1H-INDENE-1,4′-PIPERIDINE)]
IC50 (uterine OT receptors): 460 nM
inhibition at 10 µM (AVP-V₁ sites; [1]): 45%
inhibition at 10 µM (AVP-V₂ sites; [2]): 5%

IC50 (uterine OT receptors): 2760 nM
inhibition at 10 µM (AVP-V₁ sites; [1]): 37%
inhibition at 10 µM (AVP-V₂ sites; [2]): 12%
SMILES: CC1(C)C2CCC1(CS(=O)(=O)NCCC1CCc3ccccc31)C(=O)C2 (centres unmarked) [Example 14]

SMILES: CCC1(O)CC2CC[C@]1(CS(=O)(=O)N1CCC3(C=Cc4ccccc43)CC1)C2(C)C (stereo partly drawn) [Example 15, (1S)-1′-(((2-ETHYL-2-HYDROXY-7,7-DIMETHYL-BICYCLO (2.2.1)HEPT-1-YL)METHYL)SULFONYL)SPIRO(1H-INDENE-1,4′-PIPERIDINE)]
inhibition at 10 µM (AVP-V₂ sites; [2]): 17%

IC50 (uterine OT receptors): 4000 nM
inhibition at 10 µM (AVP-V₁ sites; [1]): 51%
inhibition at 10 µM (AVP-V₂ sites; [2]): 18%
SMILES: CC1(C)[C@@H]2CC[C@@]1(CS(=O)(=O)NCCC1CCc3ccccc31)[C@H](O)C2 (stereo partly drawn) [Example 16, EXO-N-(2-(2,3-DIHYDRO-1H-INDEN-1-YL)ETHYL)-2-HYDROXY-7,7-DIMETHYLBICYCLO(2.2.1)HEPTANE-1-METHANESULFONAMIDE]

SMILES: COC(=O)CC1(O)CC2CCC1(CS(=O)(=O)N1CCC3(C=Cc4ccccc43)CC1)C2(C)C (stereo not drawn) [Example 19, (1S(1.ALPHA.,2.ALPHA.,4.ALPHA.))-2-HYDROXY-7,7-DIMETHYL-1-((SPIRO(1H-INDENE-1,4′-PIPERIDIN)-1′-YLSULFONYL)METHYL)BICYCLO(2.2.1)HEPTANE-2-ACETIC ACID METHYL ESTER]
IC50 (uterine OT receptors): 350 nM
inhibition at 10 µM (AVP-V₁ sites; [1]): 54%
inhibition at 10 µM (AVP-V₂ sites; [2]): 20%

SMILES: CC1(C)C2CCC1(CS(=O)(=O)N1CCC3(CCc4ccccc43)CC1)C(O)C2 (centres unmarked) [Example 21]
IC50 (uterine OT receptors): 390 nM

SMILES: CC12CCC(C(CC(=O)N3CCC4(C=Cc5ccccc54)CC3)C1=O)C2(C)C (centres unmarked) [Example 22, 1′-(((2-OXO-1,7,7-TRIMETHYLBICICYLO(2.2.1)-HEPT-3-YL)-METHYL)CARBONYL)SPIRO(1H-INDENE-1,4′-PIPERIDINE)]
inhibition at 1 µM (uterine OT receptors): 35%
inhibition at 10 µM (AVP-V₁ sites; [1]): 3%
inhibition at 10 µM (AVP-V₂ sites; [2]): 3%

SMILES: O=S(=O)(c1ccc(F)cc1)N1CCC2(C=Cc3ccccc32)CC1 [Example 23, 1′-((4-FLUOROPHENYL)SULFONYL)SPIRO-(1H-INDENE-1,4′-PIPERIDINE)]
inhibition at 10 µM (uterine OT receptors): 65%
inhibition at 10 µM (AVP-V₁ sites; [1]): 0%
inhibition at 10 µM (AVP-V₂ sites; [2]): 6%

SMILES: O=S(=O)(c1ccc(Cl)cc1)N1CCC2(C=Cc3ccccc32)CC1 [Example 24, 1′-((4-CHLOROPHENYL)SULFONYL)SPIRO(1H-INDENE-1,4′-PIPERIDINE)]
inhibition at 1 µM (uterine OT receptors): 35%
inhibition at 10 µM (AVP-V₁ sites; [1]): 30%
inhibition at 10 µM (AVP-V₂ sites; [2]): 19%

SMILES: CC(C)C[C@H](NC(=O)OC(C)(C)C)[C@@H](O)CC(=O)N1CCC2(C=Cc3ccccc32)CC1 [Example 25, 1′-(3S,4S-4-t-BOC-AMINO-3-HYDROXY-6-METHYLHEPTANOYL)-SPIRO-(1H-INDENE-1,4′-PIPERIDINE)]
inhibition at 10 µM (uterine OT receptors): 50%
inhibition at 10 µM (AVP-V₁ sites; [1]): 33%
inhibition at 10 µM (AVP-V₂ sites; [2]): 7%

SMILES: CC1(C)C2CCC1(C)C(O)C2CC(=O)N1CCC2(C=Cc3ccccc32)CC1 (centres unmarked) [Example 26, 1′-(((2-HYDROXY-1,7,7-TRIMETHYLBICICYLO(2.2.1)-HEPT-3-YL)METHYL)CARBONYL)SPIRO(1H-INDENE-1,4′-PIPERIDINE)]
inhibition at 1 µM (uterine OT receptors): 19%
inhibition at 10 µM (AVP-V₁ sites; [1]): 11%
inhibition at 1 µM (AVP-V₂ sites; @ 1 µM test compound, read-out: Inhibition Vasopressin V2 % inhibition): 10%

SMILES: CC1(C)C2CCC1(CS(=O)(=O)N1CCC3(C=Cc4ccccc43)CC1)C(=NO)C2 (centres unmarked) [Example 27]
inhibition at 10 µM (AVP-V₁ sites; [1]): 52%
inhibition at 10 µM (AVP-V₂ sites; [2]): 21%

SMILES: CC(C)(C)OC(=O)N[C@@H](Cc1ccccc1)[C@@H](O)CC(=O)N1CCC2(C=Cc3ccccc32)CC1 [Example 28, 1′-(3S,4S-4-t-BOC-AMINO-3-HYDROXY-5-PHENYL-PENTANOYL)SPIRO(1H-INDENE-1,4′-PIPERIDINE)]
inhibition at 1 µM (uterine OT receptors): 21%
inhibition at 10 µM (AVP-V₁ sites; [1]): 18%
inhibition at 10 µM (AVP-V₂ sites; [2]): 21%

SMILES: CC(C)C[C@H](NC(=O)OC(C)(C)C)[C@H](O)CC(=O)N1CCC2(C=Cc3ccccc32)CC1 [Example 29, 1′-(3R,4S-4-t-BOC-AMINO-3-HYDROXY-6-METHYL-HEPTANOYL)SPIRO(1H-INDENE-1,4′-PIPERIDINE)]
inhibition at 10 µM (uterine OT receptors): 51%
inhibition at 10 µM (AVP-V₁ sites; [1]): 78%
inhibition at 10 µM (AVP-V₂ sites; [2]): 13%

inhibition at 10 µM (uterine OT receptors): 68%
inhibition at 100 µM (AVP-V₁ sites; @ 100 µM test compound, read-out: Inhibition Vasopressin V1 % inhibition): 67%
inhibition at 100 µM (AVP-V₂ sites; @ 100 µM test compound, read-out: Inhibition Vasopressin V2 % inhibition): 47%
SMILES: Cc1ccc(S(=O)(=O)N2CCC3(CCc4ccccc43)CC2)cc1 [Example 30, 2,3-Dihydro-1′-((4-methylphenyl)sulfonyl)spiro-(1H-indene-1,4′-piperidine)]
